Common to all, as to assay: inhibition of tumour cell growth, NCI panel, 48 h
Assay [1] has as its system A549.
Assay [2] deals with SF-539.
In assay [3] the test system is T47D.
Assay [4] has as its system NCI-H226.
Assay [5] has as its system UACC-62.
For assay [6], the system named is ACHN.
The subject of assay [7] is SF-268.
The subject of assay [8] is SW-620.
Assay [9] has as its system EKVX.
Assay [10] relates to SNB-75.
Assay [11] concerns M14.
In assay [12] the test system is DU-145.
The subject of assay [13] is HT-29.
For assay [14], the system named is HCC 2998.
Assay [15] concerns OVCAR-5.
Assay [16] has as its system OVCAR-8.
Assay [17] deals with SK-OV-3.
The test system of assay [18] is MDA-MB-435.
Assay [19] relates to NCI-H23.
Assay [20] relates to RXF 393.

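1) Cells in 96-well plates. 2) Compound, 48 h, 5 concentrations. 3) Linear interpolation between surrounding doses. 4) Unreached endpoint = highest concentration. Here, GI50 denotes the concentration required for 50% inhibition of growth.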 Calls of active or inactive are those of the source. No stated cut-off is given here; in the data, active = GI50 up to about 1.1 µM and inactive = higher.

On to `C(CCc1nnc2c(n1)CCCC2)Cc1nnc2c(n1)CCCC2`, for which the GI50 in assay [1], in assay [2], in assay [3], in assay [4], in assay [5] and in assay [6] was > 100 µM (inactive) each time. Moreover, the GI50 in assay [7], in assay [8], in [9], in assay [10], in [11] and in assay [12] was > 100 µM (inactive) throughout. The GI50 was > 100 µM (inactive) in [13]; > 100 µM (inactive) in assay [14]; > 100 µM (inactive) in [15]; > 100 µM (inactive) in assay [16]; > 100 µM (inactive) in assay [17]; 88.7 µM (inactive) in [18]. Also, the GI50 in [19] and in assay [20] was > 100 µM (inactive) each time.
Regarding `COC(C)(C)[C@@H](O)[C@H]1C[C@H](C)[C@@]2(CC[C@]3(C)[C@@H]2CC[C@@H]2[C@@]4(C)CC[C@@H](OC(C)=O)C(C)(C)[C@@H]4C[C@@H](OC4OC(COC(C)=O)C(O)C(O)C4O)[C@]23C)O1` (stereo not given in full), the GI50 in assay [1] was 4.01 µM (inactive); in assay [2] it was 10.1 µM (inactive); in assay [3], 4.14 µM (inactive); in [4], 4.75 µM (inactive); in assay [5] it was 4.93 µM (inactive); in [6], 5.86 µM (inactive). The GI50 was 4.98 µM (inactive) in [7]; 6.81 µM (inactive) in assay [8]; 5.74 µM (inactive) in assay [9]; 4.46 µM (inactive) in [10]; 4.8 µM (inactive) in [11]; 4.37 µM (inactive) in assay [12]. In addition, the GI50 in assay [13] is 1.89 µM (inactive); in assay [14], 0.662 µM (active); in [15], 2.54 µM (inactive); in assay [16] it was 5.33 µM (inactive); in [17] it was 4.7 µM (inactive); in [18] it was 3.29 µM (inactive). Further, the GI50 in assay [19] is 10.2 µM (inactive); in [20] it was 4.1 µM (inactive).
Consider `COC1=CC(=O)c2nc3ccccc3c3ccnc1c23`, for which the GI50 in assay [1] was 1.12 µM (inactive); in [2] it was 2.92 µM (inactive); in assay [3], 5.71 µM (inactive); in assay [4], 10.8 µM (inactive); in assay [5], 1.07 µM (active); in assay [6] it was 3.42 µM (inactive). The GI50 was 3.94 µM (inactive) in [7]; 1.03 µM (active) in assay [8]; 12.6 µM (inactive) in assay [9]; 9.89 µM (inactive) in assay [10]; 2.9 µM (inactive) in assay [11]; 3.25 µM (inactive) in assay [12]. The GI50 is 3.24 µM (inactive) in assay [13]; 3.1 µM (inactive) in assay [14]; 12.5 µM (inactive) in assay [15]; 3.26 µM (inactive) in assay [16]; 26.9 µM (inactive) in assay [17]; 0.187 µM (active) in assay [18]. For the same compound, the GI50 in assay [19] was 1.35 µM (inactive); in [20], 2.61 µM (inactive).
Consider `C=C1C(=O)C2(C)OC2(C)C1C(=O)O` (stereo not given), for which the GI50 in [1], in [2], in assay [3], in assay [4], in [5] and in assay [6] was > 100 µM (inactive) throughout. Besides, the GI50 in [7], in assay [8], in assay [9], in [10], in assay [11] and in [12] was > 100 µM (inactive) each time. Besides, the GI50 in [13], in assay [14], in assay [15], in assay [16], in assay [17] and in assay [18] was > 100 µM (inactive) throughout. Besides, the GI50 in [19] and in [20] was > 100 µM (inactive) throughout.
Regarding `CCC/C(Cl)=N\OC(=O)Nc1ccc(OC(F)(F)F)cc1`, the GI50 in [1] is 20.2 µM (inactive); in assay [2], 16.7 µM (inactive); in assay [3], 2.79 µM (inactive); in assay [4], 15.6 µM (inactive); in assay [5] it was 18.8 µM (inactive); in assay [6], 2.19 µM (inactive). Also, the GI50 in assay [7] is 24.7 µM (inactive); in assay [8] it was 2.53 µM (inactive); in assay [9], 10.1 µM (inactive); in assay [10] it was 15.6 µM (inactive); in assay [11] it was 6.52 µM (inactive); in assay [12], 18 µM (inactive). Besides, the GI50 in assay [13] was 18.2 µM (inactive); in assay [14], 19.5 µM (inactive); in assay [15] it was 19.6 µM (inactive); in assay [16] it was 16.7 µM (inactive); in assay [17], 18.5 µM (inactive); in assay [18], 22.1 µM (inactive). The GI50 in assay [19] is 21.4 µM (inactive); in [20] it was 16 µM (inactive).
Turning to `C(=C\c1nccs1)/c1cccc(/C=C/c2nccs2)n1`, the GI50 in assay [1] is > 50 µM (inactive); in assay [2] it was > 50 µM (inactive); in assay [3], 31.2 µM (inactive); in [4], > 50 µM (inactive); in assay [5], > 50 µM (inactive); in assay [6] it was > 50 µM (inactive). Further, the GI50 is > 50 µM (inactive) in assay [7]; > 50 µM (inactive) in assay [8]; 49 µM (inactive) in [9]; 22 µM (inactive) in assay [10]; > 50 µM (inactive) in assay [11]; > 50 µM (inactive) in assay [12]. The GI50 in assay [13] was > 50 µM (inactive); in assay [14], 27.7 µM (inactive); in assay [15], > 50 µM (inactive); in [16] it was 47.9 µM (inactive); in assay [17], > 50 µM (inactive); in [18], > 50 µM (inactive). Moreover, the GI50 in assay [19] and in assay [20] was > 50 µM (inactive) throughout.
Regarding `[N-]=[N+]=Nc1c([N+](=O)[O-])c(Cl)nc2ccccc12`, the GI50 in [1] was 16.8 µM (inactive); in [2], 3.92 µM (inactive); in assay [3], 2.07 µM (inactive); in assay [4], 10.6 µM (inactive); in [5], 4.37 µM (inactive); in assay [6], 1.76 µM (inactive). For the same compound, the GI50 in assay [7] is 3.47 µM (inactive); in assay [8] it was 0.48 µM (active); in assay [9], 3.01 µM (inactive); in assay [10] it was 8.93 µM (inactive); in assay [11], 1.44 µM (inactive); in assay [12], 2.13 µM (inactive). Moreover, the GI50 was 2.18 µM (inactive) in [13]; 1.98 µM (inactive) in [14]; 2.44 µM (inactive) in assay [15]; 1.87 µM (inactive) in [16]; 14.5 µM (inactive) in [17]; 2.38 µM (inactive) in [18]. Moreover, the GI50 was 2.6 µM (inactive) in [19] and 1.86 µM (inactive) in [20].
Take `Nc1c(C(=O)c2ccccc2)[nH]c(NCc2ccccc2)c1C(=S)Nc1ccccc1`: the GI50 in assay [1], in assay [2], in [3], in assay [4], in assay [5] and in [6] was > 100 µM (inactive) each time. The GI50 in [7], in assay [8], in assay [9], in assay [10], in [11] and in assay [12] was > 100 µM (inactive) each time. Besides, the GI50 in assay [13], in assay [14], in assay [15], in assay [16], in assay [17] and in assay [18] was > 100 µM (inactive) in each case. Moreover, the GI50 in assay [19] and in [20] was > 100 µM (inactive) throughout.
In the case of `CC1(C)OC[C@@H](O)[C@H](C#N)CO1`, the GI50 in assay [1], in assay [2], in [3], in [4], in [5] and in [6] was > 100 µM (inactive) throughout. Besides, the GI50 in [7], in assay [8], in assay [9], in assay [10], in [11] and in assay [12] was > 100 µM (inactive) throughout. In addition, the GI50 in assay [13], in [14], in [15], in assay [16], in [17] and in assay [18] was > 100 µM (inactive) throughout. Also, the GI50 in assay [19] and in [20] was > 100 µM (inactive) throughout.
As for `CC(C)(C)c1ccc(S(=O)(=O)N2C(c3cccc(C4CC[C@@H](C(=O)O)N4S(=O)(=O)c4ccc(C(C)(C)C)cc4)c3)CC[C@H]2C(=O)O)cc1` (stereo not given in full), the GI50 was 66.7 µM (inactive) in assay [1]; 87.3 µM (inactive) in assay [2]; 29.9 µM (inactive) in [3]; 71.9 µM (inactive) in [4]; 44.9 µM (inactive) in [5]; 57.4 µM (inactive) in [6]. For the same compound, the GI50 in assay [7] was 77.8 µM (inactive); in [8], 69.3 µM (inactive); in assay [9], 30.1 µM (inactive); in [10], > 100 µM (inactive); in assay [11], 54.1 µM (inactive); in assay [12], 75.3 µM (inactive). The GI50 was 47.8 µM (inactive) in assay [13]; 47.4 µM (inactive) in assay [14]; > 100 µM (inactive) in assay [15]; 67.5 µM (inactive) in assay [16]; > 100 µM (inactive) in assay [17]; 54.7 µM (inactive) in assay [18]. The GI50 in [19] was 40.2 µM (inactive); in [20], 30.1 µM (inactive).

The values above are taken from ChEMBL document CHEMBL1201862, “PubChem BioAssay data set” (2004).
